According to the supplement of paper PMC10331698:
± gives the standard deviation of the averaged measurements.

What was measured:
Test in all cases: level (log10 ratio to DMSO vehicle control); higher = higher biomarker level / cell amount than vehicle control
Conditions in all cases: in DMSO
[1] = compound: O=C(O)CCC(F)(F)C(F)(F)C(F)(F)F [3:3 Fluorotelomer carboxylic acid]
Protocol: (§1)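 BioMAP Diversity Plus panel of 12 human primary cell co-culture systems (3C, 4H, LPS, SAg, BT, BF4T, BE3C, CASM3C, HDF3CGF, KF3CT, MyoF, Mphg). Compounds were added 1 h before stimulation and left for 24 h (MyoF 48 h; BT 72 h for soluble read-outs or 6 d for IgG). Biomarkers were read by ELISA, cytotoxicity by SRB, PBMC viability and proliferation by Alamar Blue. Each well value was divided by the mean of 8 DMSO control wells on the same plate and log10 transformed; duplicate blinded samples were tested at 4 concentrations.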

[2] = compound: C=CC(=O)OCCC(F)(F)C(F)(F)C(F)(F)C(F)(F)F [2-(Perfluorobutyl)ethyl acrylate]
Protocol: as §1

[3] = compound: O=C(O)C(F)(F)OC(F)(F)C(F)(F)OC(F)(F)C(F)(F)C(F)(F)C(F)(F)F [Perfluoro-3,6-dioxadecanoic acid]
Protocol: as §1

Row | Test System | level (log10) ([1]; 6700 nM) | level (log10) ([1]; 20000 nM) | level (log10) ([1]; 60000 nM) | level (log10) ([2]; 6700 nM) | level (log10) ([2]; 20000 nM) | level (log10) ([2]; 60000 nM) | level (log10) ([3]; 6700 nM) | level (log10) ([3]; 20000 nM) | level (log10) ([3]; 60000 nM)
1 | BT:sIL-2 | -0.042 ± 0.13 | -0.0335 ± 0.022 | 0.0335 ± 0.0021 | 0.0045 ± 0.1 | -0.011 ± 0.016 | -0.511 ± 0.23 | 0.0465 ± 0.036 | 0.0285 ± 0.16 | -0.011 ± 0.095
2 | BT:sIL-6 | 0.0225 ± 0.056 | 0.055 ± 0.065 | 0.0425 ± 0.076 | -0.063 ± 0.041 | -0.153 ± 0.0028 | -0.76 ± 0.15 | 0.0375 ± 0.029 | 0.0265 ± 0.039 | -0.058 ± 0.033
3 | BT:sIL-17A | 0.021 ± 0.11 | -0.049 ± 0.13 | -0.0765 ± 0.26 | -0.217 ± 0.17 | -0.465 ± 0.067 | -1.03 ± 0.46 | 0.034 ± 0.12 | 0.045 ± 0.22 | -0.147 ± 0.065
4 | BT:sIL-17F | -0.003 ± 0.081 | 0.035 ± 0.081 | 0.059 ± 0.048 | -0.169 ± 0.0071 | -0.393 ± 0.017 | -0.673 ± 0.061 | -0.016 ± 0.055 | -0.0335 ± 0.12 | -0.021 ± 0.1
5 | BT:sTNF-alpha | 0.152 ± 0.077 | 0.0025 ± 0.098 | 0.158 ± 0.018 | -0.095 ± 0.1 | -0.192 ± 0.0085 | -0.767 ± 0.3 | 0.0675 ± 0.086 | 0.0875 ± 0.08 | -0.046 ± 0.051
6 | LPS:CCL2/MCP-1 | 0.001 ± 0.023 | -0.0025 ± 0.015 | 0.0135 ± 0.013 | -0.0075 ± 0.0035 | -0.02 ± 0.0085 | -0.0255 ± 0.029 | 0.008 ± 0.0085 | 0.0005 ± 0.0078 | -0.042 ± 0.05
7 | LPS:CD40 | -0.0035 ± 0.021 | 0.027 ± 0.028 | -0.014 ± 0.051 | -0.0445 ± 0.00071 | -0.044 ± 0.035 | -0.237 ± 0.035 | -0.0125 ± 0.0078 | -0.0265 ± 0.023 | -0.14 ± 0.055
8 | LPS:CD62E/E-Selectin | -0.0045 ± 0.015 | -0.016 ± 0.0057 | 0.0075 ± 0.011 | 0.0345 ± 0.023 | 0.033 ± 0.0071 | 0.0015 ± 0.04 | 0.008 ± 0.034 | 0.006 ± 0.04 | 0.024 ± 0.04
